# Data: US8211935B2, “Heterocyclic derivatives for modulation of calcium channels” (Vertex Pharmaceuticals Incorporated, priority 2004, dated 2012)
# Where two headings read alike, the source gives them in different places.
# Molecular target: T1, CaV2.2 (Homo sapiens, UniProt Q00975)
# T1 construct: expressed in transfected cells; host or cells: HEK293
# Test: VIPR optical membrane potential assay with electrical stimulation
# Assay type: cell-based
# Protocol: Antagonist properties of test compounds were assessed as follows. Cells expressing the CaV of interest were placed into microtiter plates. After an incubation period, the cells were stained with fluorescent dyes sensitive to the transmembrane potential. The test compounds were added to the microtiter plate. The cells were stimulated with electrical means to evoke a CaV dependent membrane potential change from unblocked channels, which was detected and measured with trans-membrane potential-sensitive dyes. Antagonists were detected as a decreased membrane potential response to the stimulus.
# VIPR® Optical Membrane Potential Assay Method with Electrical Stimulation
# The following is an example of how CaV2.2 inhibition activity is measured using the optical membrane potential method. Other subtypes are performed in an analogous mode in a cell line expressing the CaV of interest.
# HEK293 cells stably expressing CaV2.2 are plated into 96-well microtiter plates. After an appropriate incubation period, the cells are stained with the voltage sensitive dyes CC2-DMPE/DiSBAC2(3) as follows.
# 2×CC2-DMPE=20 μM CC2-DMPE: 10 mM CC2-DMPE is vortexed with an equivalent volume of 10% Pluronic, followed by vortexing in required amount of HBSS containing 10 mM HEPES. Each cell plate will require 5 mL of 2×CC2-DMPE. 50 μL of 2×CC2-DMPE is added to wells containing washed cells, resulting in a 10 μM final staining concentration. The cells are stained for 30 minutes in the dark at RT.
# Vortex in required amount of Bath X with beta-cyclodextrin. Each 96 well cell plate will require 5 ml of 2×CC2DMPE. Wash plate with ELx405 with Bath X, leaving a residual volume of 50 μL/well. Add 50 μL of 2×CC2DMPE & DISBAC6(3) to each well. Stain for 30 minutes in the dark at RT.
# Allow solution to sit for 10 minutes. Slowly mix in 370 mM BaCl2. This solution can be used to solvate compound plates. Note that compound plates are made at 1.5× drug concentration and not the usual 2×. Wash CC2 stained plate, again, leaving residual volume of 50 pt. Add 100 uL/well of the AY17 solution. Stain for 15 minutes in the dark at RT. Run plate on the optical reader.
# The instrument comprises a microtiter plate handler, an optical system for exciting the coumarin dye while simultaneously recording the coumarin and oxonol emissions, a waveform generator, a current- or voltage-controlled amplifier, and a device for inserting electrodes in well. Under integrated computer control, this instrument passes user-programmed electrical stimulus protocols to cells within the wells of the microtiter plate.
# Insert or use electrodes into each well to be assayed.
# Use the current-controlled amplifier to deliver stimulation wave pulses for 3-5 s. Two seconds of pre-stimulus recording are performed to obtain the un-stimulated intensities. Five seconds of post-stimulation recording are performed to examine the relaxation to the resting state.
# Data are analyzed and reported as normalized ratios of background-subtracted emission intensities measured in the 460 nm and 580 nm channels. Background intensities are then subtracted from each assay channel. Background intensities are obtained by measuring the emission intensities during the same time periods from identically treated assay wells in which there are no cells. The response as a function of time is then reported as the ratios obtained using the following formula: […]
# The data is further reduced by calculating the initial (Ri) and final (Rf) ratios. These are the average ratio values during part or all of the pre-stimulation period, and during sample points during the stimulation period. The response to the stimulus R=Rf/Ri is then calculated.
# Control responses are obtained by performing assays in the presence of a compound with the desired properties (positive control), such as mibefradil, and in the absence of pharmacological agents (negative control). Responses to the negative (N) and positive (P) controls are calculated as above.
# [1] = Table 3, biological assay data, read-out: IC50
# T1 sequence (Q00975 whole entry): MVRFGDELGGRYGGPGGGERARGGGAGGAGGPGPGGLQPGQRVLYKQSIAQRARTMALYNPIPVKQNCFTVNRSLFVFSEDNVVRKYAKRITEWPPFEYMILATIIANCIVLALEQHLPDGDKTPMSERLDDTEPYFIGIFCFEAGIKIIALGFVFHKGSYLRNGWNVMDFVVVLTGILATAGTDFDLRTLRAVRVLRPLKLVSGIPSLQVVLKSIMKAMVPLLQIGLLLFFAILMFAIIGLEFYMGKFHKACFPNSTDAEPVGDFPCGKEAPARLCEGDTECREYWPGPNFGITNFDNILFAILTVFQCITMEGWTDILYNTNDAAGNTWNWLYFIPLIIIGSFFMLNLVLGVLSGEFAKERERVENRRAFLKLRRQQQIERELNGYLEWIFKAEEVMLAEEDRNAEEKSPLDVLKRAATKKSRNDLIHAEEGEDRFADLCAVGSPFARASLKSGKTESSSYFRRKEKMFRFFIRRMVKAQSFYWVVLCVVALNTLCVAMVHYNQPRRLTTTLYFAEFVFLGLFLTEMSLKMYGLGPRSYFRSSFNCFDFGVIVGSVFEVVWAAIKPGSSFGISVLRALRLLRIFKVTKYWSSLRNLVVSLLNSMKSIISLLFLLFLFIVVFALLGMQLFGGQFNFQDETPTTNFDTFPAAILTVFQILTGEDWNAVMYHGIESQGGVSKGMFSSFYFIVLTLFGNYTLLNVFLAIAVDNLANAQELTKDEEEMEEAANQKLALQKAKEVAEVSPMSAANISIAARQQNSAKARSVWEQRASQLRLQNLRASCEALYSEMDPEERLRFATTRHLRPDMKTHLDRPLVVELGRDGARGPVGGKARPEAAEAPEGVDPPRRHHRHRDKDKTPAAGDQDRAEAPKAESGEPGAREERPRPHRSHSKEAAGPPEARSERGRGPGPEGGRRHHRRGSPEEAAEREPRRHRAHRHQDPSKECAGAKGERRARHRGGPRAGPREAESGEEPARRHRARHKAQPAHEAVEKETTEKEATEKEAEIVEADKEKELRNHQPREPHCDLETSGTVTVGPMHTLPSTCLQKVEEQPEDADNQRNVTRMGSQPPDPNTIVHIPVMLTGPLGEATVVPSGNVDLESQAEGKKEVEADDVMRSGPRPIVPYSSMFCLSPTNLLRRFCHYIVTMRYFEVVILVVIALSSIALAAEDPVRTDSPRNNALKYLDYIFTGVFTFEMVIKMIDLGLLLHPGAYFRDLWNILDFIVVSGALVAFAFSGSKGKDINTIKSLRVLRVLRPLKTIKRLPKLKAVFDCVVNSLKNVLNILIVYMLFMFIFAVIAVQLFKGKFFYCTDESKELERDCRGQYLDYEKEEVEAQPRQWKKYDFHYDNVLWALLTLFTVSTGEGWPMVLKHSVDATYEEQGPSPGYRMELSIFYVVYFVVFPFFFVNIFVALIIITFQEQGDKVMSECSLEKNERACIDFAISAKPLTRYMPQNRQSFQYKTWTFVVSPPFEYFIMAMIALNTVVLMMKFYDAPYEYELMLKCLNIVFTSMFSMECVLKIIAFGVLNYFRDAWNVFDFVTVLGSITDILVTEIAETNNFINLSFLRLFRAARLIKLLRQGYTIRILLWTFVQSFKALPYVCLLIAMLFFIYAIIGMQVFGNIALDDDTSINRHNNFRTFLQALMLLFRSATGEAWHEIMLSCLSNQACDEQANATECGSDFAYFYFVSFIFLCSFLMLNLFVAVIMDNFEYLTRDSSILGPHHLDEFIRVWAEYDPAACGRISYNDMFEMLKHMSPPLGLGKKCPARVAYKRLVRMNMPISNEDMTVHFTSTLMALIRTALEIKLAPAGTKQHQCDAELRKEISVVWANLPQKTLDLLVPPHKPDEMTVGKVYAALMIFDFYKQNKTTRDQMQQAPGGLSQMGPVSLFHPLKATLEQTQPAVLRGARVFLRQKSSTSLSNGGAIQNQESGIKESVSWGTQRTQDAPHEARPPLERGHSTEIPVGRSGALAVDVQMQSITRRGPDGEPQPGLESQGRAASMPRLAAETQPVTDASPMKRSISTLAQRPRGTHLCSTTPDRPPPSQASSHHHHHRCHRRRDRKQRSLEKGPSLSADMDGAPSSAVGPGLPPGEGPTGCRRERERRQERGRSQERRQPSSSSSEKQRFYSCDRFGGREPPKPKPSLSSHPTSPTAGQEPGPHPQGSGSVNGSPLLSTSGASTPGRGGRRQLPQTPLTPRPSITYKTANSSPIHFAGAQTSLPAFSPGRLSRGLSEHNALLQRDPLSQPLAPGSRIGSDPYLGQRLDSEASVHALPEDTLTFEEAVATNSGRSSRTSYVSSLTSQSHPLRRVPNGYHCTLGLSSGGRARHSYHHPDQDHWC
# T1 sequence (P54284 whole entry partner): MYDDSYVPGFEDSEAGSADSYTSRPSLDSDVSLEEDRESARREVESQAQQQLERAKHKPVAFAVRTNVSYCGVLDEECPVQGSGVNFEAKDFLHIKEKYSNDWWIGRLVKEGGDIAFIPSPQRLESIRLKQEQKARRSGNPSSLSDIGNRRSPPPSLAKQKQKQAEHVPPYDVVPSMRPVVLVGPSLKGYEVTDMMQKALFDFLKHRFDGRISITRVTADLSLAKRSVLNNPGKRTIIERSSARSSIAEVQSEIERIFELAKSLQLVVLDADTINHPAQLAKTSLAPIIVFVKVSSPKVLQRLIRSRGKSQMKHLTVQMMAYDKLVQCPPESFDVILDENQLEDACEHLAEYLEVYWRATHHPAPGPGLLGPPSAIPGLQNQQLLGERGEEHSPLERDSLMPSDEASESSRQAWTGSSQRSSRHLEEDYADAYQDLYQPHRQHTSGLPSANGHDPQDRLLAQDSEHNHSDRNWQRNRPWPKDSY
# T1 sequence (P54289 25-946 partner limits assumed): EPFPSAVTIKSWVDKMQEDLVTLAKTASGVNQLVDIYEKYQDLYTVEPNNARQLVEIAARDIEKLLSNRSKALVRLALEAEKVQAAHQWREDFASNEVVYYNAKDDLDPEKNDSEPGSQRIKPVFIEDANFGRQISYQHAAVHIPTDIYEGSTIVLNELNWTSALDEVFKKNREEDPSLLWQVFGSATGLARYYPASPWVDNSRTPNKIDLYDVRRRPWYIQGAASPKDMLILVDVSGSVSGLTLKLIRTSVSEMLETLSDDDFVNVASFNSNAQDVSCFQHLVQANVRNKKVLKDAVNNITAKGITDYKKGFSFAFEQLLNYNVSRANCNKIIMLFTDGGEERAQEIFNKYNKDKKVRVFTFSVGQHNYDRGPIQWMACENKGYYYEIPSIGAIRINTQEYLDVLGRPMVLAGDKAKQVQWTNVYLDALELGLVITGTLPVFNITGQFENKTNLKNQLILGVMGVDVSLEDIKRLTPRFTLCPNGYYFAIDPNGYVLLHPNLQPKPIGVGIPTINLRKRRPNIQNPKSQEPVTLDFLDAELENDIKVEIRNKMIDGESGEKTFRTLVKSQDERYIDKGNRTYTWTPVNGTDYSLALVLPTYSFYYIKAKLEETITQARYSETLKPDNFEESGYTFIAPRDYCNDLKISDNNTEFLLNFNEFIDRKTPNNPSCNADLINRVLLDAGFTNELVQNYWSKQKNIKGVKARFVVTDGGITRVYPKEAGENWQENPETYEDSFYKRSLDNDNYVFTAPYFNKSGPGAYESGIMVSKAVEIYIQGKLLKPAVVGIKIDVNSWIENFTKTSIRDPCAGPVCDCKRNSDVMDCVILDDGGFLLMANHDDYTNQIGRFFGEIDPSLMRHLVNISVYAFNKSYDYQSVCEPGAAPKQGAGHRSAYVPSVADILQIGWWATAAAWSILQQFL
# T1 sequence (P54289 947-1103 partner limits assumed): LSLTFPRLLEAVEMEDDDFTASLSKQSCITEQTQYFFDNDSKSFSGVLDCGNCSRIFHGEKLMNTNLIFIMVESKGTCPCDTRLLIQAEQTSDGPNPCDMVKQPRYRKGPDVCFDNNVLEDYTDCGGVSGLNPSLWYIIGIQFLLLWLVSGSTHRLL
IC50 [1] [µM],SMILES,IC50 [µM]
5 to 20,Cc1c(C(=O)N2CCCCC2C)oc2ccc(S(=O)(=O)N3CCCC(C)C3)cc12 (centres unmarked) [compound 61],–
< 5,Cc1c(C(=O)NC2CCCCC2)oc2ccc(S(=O)(=O)N3CC(C)CC(C)C3)cc12 (centres unmarked) [compound 62],–
5 to 20,Cc1c(C(=O)NCc2cccnc2)oc2ccc(S(=O)(=O)N3CC(C)CC(C)C3)cc12 (centres unmarked) [compound 63],–
5 to 20,Cc1c(C(=O)N2CCCCC2)oc2ccc(S(=O)(=O)N3CCCCC3)cc12 [compound 64],–
< 20,Cc1c(C(=O)N2CCCCC2)oc2ccc(S(=O)(=O)N3CCOCC3)cc12 [compound 65],–
5 to 20,O=C(NC1CC1)c1cc2cc(N(Cc3ccccc3)S(=O)(=O)c3ccccc3)ccc2[nH]1 [compound 66],–
< 5,CC(C)N(C(=O)c1cc2cc(S(=O)(=O)N3CCCCCC3)ccc2o1)C(C)C [compound 67],–
5 to 20,Cc1c(C(=O)NCC2CCCO2)[nH]c2ccc(S(=O)(=O)N3CCCCCC3)cc12 (centres unmarked) [compound 68],–
5 to 20,Cc1c(C(=O)N2CCCCC2)[nH]c2ccc(S(=O)(=O)N3CCCCCC3)cc12 [compound 69],–
5 to 20,CCN1CCN(C(=O)c2oc3ccc(S(=O)(=O)N4CCCCCC4)cc3c2C)CC1 [compound 70],–
< 20,O=C(NC1CC1)c1cc2cc(NS(=O)(=O)C3CC3)ccc2[nH]1 [compound 71],–
5 to 20,CCOC(=O)N1CCN(C(=O)c2cc3cc(S(=O)(=O)N4CCCCCC4)ccc3[nH]2)CC1 [compound 72],–
< 20,Cc1c(C(=O)NCc2ccccn2)oc2ccc(S(=O)(=O)N3CC(C)CC(C)C3)cc12 (centres unmarked) [compound 73],–
< 5,Cc1c(C(=O)N2CCCCC2)[nH]c2ccc(S(=O)(=O)N3CCC(C)CC3)cc12 [compound 74],–
< 20,Cc1c(C(=O)NC2CCCCC2)oc2ccc(S(=O)(=O)N3CCOCC3)cc12 [compound 75],–
5 to 20,COc1ccccc1CNC(=O)c1oc2ccc(S(=O)(=O)N3CCCCC3)cc2c1C [compound 76],–

IC50 [1] [µM],SMILES,IC50 [µM]
< 5,CCNC(=O)c1cc2cc(S(=O)(=O)N3CCCCCC3)ccc2[nH]1 [compound 77],–
5 to 20,Cc1c(C(=O)NCCC2CCOCC2)[nH]c2ccc(S(=O)(=O)N3CC(C)CC(C)C3)cc12 (centres unmarked) [compound 78],–
< 5,Cc1c(C(=O)NCCCN2CCOCC2)oc2ccc(S(=O)(=O)N3CC(C)CC(C)C3)cc12 (centres unmarked) [compound 79],–
5 to 20,Cc1c(C(=O)NCC2CCCCC2)oc2ccc(S(=O)(=O)N3CCC(C)CC3)cc12 [compound 80],–
< 5,Cc1c(C(=O)N2CCCC(C)C2)[nH]c2ccc(S(=O)(=O)N3CCC(C)CC3)cc12 (centres unmarked) [compound 81],–
5 to 20,CC1CC(C)CN(S(=O)(=O)c2ccc3oc(C(=O)N4CCN(C)CC4)cc3c2)C1 (centres unmarked) [compound 82],–
< 5,CCCCN(C)C(=O)c1cc2cc(S(=O)(=O)N3CCC(C)CC3)ccc2o1 [compound 83],–
< 5,CCOC(=O)N1CCN(C(=O)c2cc3cc(S(=O)(=O)N4CCC(C)CC4)ccc3[nH]2)CC1 [compound 84],–
< 5,CCN(CC)S(=O)(=O)c1ccc2oc(C(=O)N3CCc4ccccc4C3)c(C)c2c1 [compound 85],–
5 to 20,Cc1ccc(CNC(=O)c2oc3ccc(S(=O)(=O)N4CCCC4)cc3c2C)cc1 [compound 86],–
< 5,CCN(CC)S(=O)(=O)c1ccc2oc(C(=O)NC3CCCC3)c(C)c2c1 [compound 87],–
< 5,CCOC(=O)N1CCN(C(=O)c2oc3ccc(S(=O)(=O)N4CCC(C)CC4)cc3c2C)CC1 [compound 88],–
–,Cc1c(C(=O)N(C)Cc2ccccc2)oc2ccc(S(=O)(=O)N3CC(C)CC(C)C3)cc12 (centres unmarked) [compound 89],< 5
< 5,CC1CCN(S(=O)(=O)c2ccc3oc(C(=O)NCCCc4ccccc4)cc3c2)CC1 [compound 90],–
5 to 20,CC1CC(C)CN(S(=O)(=O)c2ccc3[nH]c(C(=O)N4CCN(C)CC4)cc3c2)C1 (centres unmarked) [compound 91],–
5 to 20,CCN(CC)C(=O)c1oc2ccc(S(=O)(=O)N3CCCCCC3)cc2c1C [compound 92],–
